Results published in patent US10842783B2, “Avibactam and carbapenems antibacterial agents” (THE JOHNS HOPKINS UNIVERSITY, priority 2017, dated 2020).
“Also recorded” adds a separate entry of the source. Read-outs that look alike come from different tables or passages of the source.

What was measured:
M. abscessus ATCC 19977 = assay: Broth microdilution MIC of carbapenems with and without β-lactamase inhibitors, reference strain; type: cell-based, Mycobacterium abscessus; conditions: for Minimum inhibitory concentration, 7H9 + avibactam / Minimum inhibitory concentration, CAMHB + avibactam: avibactam at fixed 4 μg/mL; for Minimum inhibitory concentration, 7H9 + sulbactam: sulbactam at fixed 4 μg/mL; for Minimum inhibitory concentration, 7H9 + tazobactam: tazobactam at fixed 4 μg/mL; for MIC: Mycobacteroides abscessus; for Ability of the β-lactamase inhibitor to reduce MICs of carbapenems, in words: inhibitor at 4 μg/mL
Description: (§1) All strains were initially grown in 7H9 complete medium composed of Middlebrook 7H9 broth (Difco) supplemented with 0.5% glycerol, 10% oleic acid-albumin-dextrose-catalase and 0.05% Tween-80 at 37° C. with constant shaking. A standard broth microdilution method was used to determine MIC. Briefly, M. abscessus strains were grown as described above and these cultures, at exponential phase (A600 nm˜0.6-0.8), were used to inoculate 10^5 colony forming units (CFU) into each well of microtiter culture plates containing a carbapenem at two fold serial dilutions ranging from 256 to 0.25 μg/mL. An identical setup but with wells containing 4 μg/mL of avibactam was used to assess the effect of this agent on each carbapenem. Carbapenems studied were procured commercially from Sigma-Aldrich and include ertapenem, meropenem, imipenem, doripenem, biapenem, faropenem, tebipenem and panipenem. β-lactamase inhibitors sulbactam, tazobactam and avibactam were also procured from Sigma-Aldrich. In addition, to establish baseline antibacterial susceptibility for each strain we also determined MICs for drugs currently used to treat M. abscessus infections. They are linezolid, cefoxitin, kanamycin, ciprofloxacin, moxifloxacin, amikacin, tigecycline, imipenem, tobramycin, trimethoprim/sulfamethoxazole, and clarithromycin. M. abscessus growth was evaluated by visual inspection of pellets after 3 days of incubation (the exception being clarithromycin for which incubation was extended to 14 days) at 30° C. without shaking per CLSI guidelines. In addition to assessment in 7H9 complete medium, we also used cation adjusted Mueller-Hinton broth for MIC studies for the reference strain M. abscessus ATCC 19977. All experiments were repeated and the final data represent the average of two biological replicates.
We studied the utility of β-lactamase inhibitors sulbactam, tazobactam, and avibactam in restoring in vitro potencies of carbapenems against M. abscessus using the reference drug-susceptible strain ATCC 19977. We determined MICs of ertapenem, meropenem, imipenem, doripenem, biapenem, faropenem, tebipenem and panipenem alone or in the presence of the aforementioned […] β-lactamase inhibitors.

[1] = system: M. abscessus clinical strains; assay: Broth microdilution MIC of carbapenems with and without avibactam, twenty eight clinical isolates; type: cell-based, Mycobacterium abscessus; conditions: for Effect of avibactam on the MIC of the carbapenem, in words: clinical strains; for Effect of avibactam on the MIC of the carbapenem, in words / Average reduction in MICs of the carbapenems in combination with avibactam: avibactam 4 μg/mL; for Average reduction in MICs of the carbapenems in combination with avibactam: twenty eight clinical strains
Text: Twenty eight unique clinical isolates of M. abscessus were used in this study. These strains were obtained de-identified from the archive of the clinical microbiology laboratory of the Johns Hopkins University Hospital per institutional ethical guidelines. They were isolated over a 10 year period, from 2005-2015, from patients that were temporally and geographically unrelated. No two isolates are from the same patient. Those displaying a high level of resistance to antibacterials used for M. abscessus infection were selected for this study. All strains obtained prior to 2014 were identified to the M. abscessus complex level using a variety of methods including 16S rDNA sequencing in conjunction with selected biochemical testing such as sodium citrate. More recent isolates (those isolated after 2014) were identified using MALDI ToF mass spectrometry in which a Bruker MicroFlex LT (MicroFlex LT) mass spectrometer and Bruker Biotyper software and existing database (version 2.0, Bruker) were employed. Sub-speciation within the M. abscessus complex, which helps to distinguish between M. abscessus sensu stricto, M. massiliense, and M. bolletii, was not done as this is not per the current standard of care at the Johns Hopkins Clinical Mycobacteriology Laboratory. Distinguishing between M. abscessus sensu stricto and M. massiliense is most often performed to guide therapy since M. massiliense is known to have a non-funtional erm gene and is therefore susceptible to macrolides. However, due to the high number of macrolide resistant M. abscessus complex isolates recovered at Johns Hopkins, most patient isolates are subjected to drug susceptibility testing, making speciation within the complex of lesser importance. Thus, the proportion of each subspecies within the M. abscessus complex for the Johns Hopkins strain collection is not known. M. abscessus ATCC 19977 was included as a reference drug-sensitive strain.
as §1

[2] = in vivo; cited from earlier work
[3] = ATCC19977, 7H9 broth, drug alone, read-out: Minimum inhibitory concentration, 7H9 broth
[4] = ATCC19977, carbapenem alone, single values given, read-out: MIC of carbapenems against the drug sensitive control strain
[5] = ATCC19977, cation-adjusted Mueller-Hinton broth, drug alone, read-out: Minimum inhibitory concentration, CAMHB only
[6] = cation-adjusted Mueller-Hinton broth
[7] = with avibactam, against M. abscessus

SMILES	Minimum inhibitory concentration, 7H9 + avibactam (M. abscessus ATCC 19977; 7H9 broth)	Minimum inhibitory concentration, 7H9 + sulbactam (M. abscessus ATCC 19977; 7H9 broth)	Minimum inhibitory concentration, 7H9 + tazobactam (M. abscessus ATCC 19977; 7H9 broth)	MIC (M. abscessus ATCC 19977; [3])	MIC (M. abscessus ATCC 19977; [4])	MIC (M. abscessus ATCC 19977; [5])	Minimum inhibitory concentration, CAMHB + avibactam (M. abscessus ATCC 19977; [6])	Effect of avibactam on the MIC of the carbapenem, in words [1]	Average reduction in MICs of the carbapenems in combination with avibactam [1]	Ability of the β-lactamase inhibitor to reduce MICs of carbapenems, in words (M. abscessus ATCC 19977)	MIC (M. abscessus ATCC 19977; ATCC19977, read-out: Minimum inhibitory concentration, 7H9 broth)	Average peak plasma concentration [2]	Half-life [2]	Fold decrease of MIC by avibactam [1, 7]	MIC of carbapenem as reduced by avibactam [1, 7]
C[C@@H](O)[C@H]1C(=O)N2C(C(=O)O)=C([C@H]3CCCO3)S[C@H]12 [Faropenem, faropenem]	8 to 16 µg/mL	16 to 32 µg/mL	32 to 64 µg/mL	32 to 64 µg/mL	64 µg/mL	64 to 128 µg/mL	16 to 32 µg/mL	least effective	3 fold	–	–	–	–	–	–
C[C@@H](O)[C@H]1C(=O)N2C(C(=O)O)=C(S[C@@H]3CN[C@H](CNS(N)(=O)=O)C3)[C@H](C)[C@H]12 [Doripenem, doripenem]	2 to 4 µg/mL	8 to 16 µg/mL	8 to 16 µg/mL	8 to 16 µg/mL	16 µg/mL	16 to 32 µg/mL	4 to 8 µg/mL	–	6 fold	–	–	–	–	–	–
O=C(O)[C@H]1/C(=C/CO)O[C@@H]2CC(=O)N21 [clavulanate]	–	–	–	–	–	–	–	–	–	failed to observe significant reduction in MIC	–	–	–	–	–
CC1(C)[C@H](C(=O)O)N2C(=O)C[C@H]2S1(=O)=O [Sulbactam, sulbactam]	–	–	–	–	–	–	–	–	–	failed to reduce the MICs; also recorded: failed to observe significant reduction in MIC	> 64 µg/mL	–	–	–	–
C[C@@H](O)[C@H]1C(=O)N2C(C(=O)O)=C(S[C@@H]3CN[C@H](C(=O)Nc4cccc(C(=O)O)c4)C3)[C@H](C)[C@H]12 [Ertapenem, ertapenem]	4 to 8 µg/mL	>64 µg/mL	32 to 64 µg/mL	64 to 128 µg/mL	128 µg/mL	128 to 256 µg/mL	8 to 16 µg/mL	levels that are therapeutically relevant; also recorded: levels achievable in the blood	> 13 fold	–	–	~150 µg/mL	~4 h	–	–
C[C@]1(Cn2ccnn2)[C@H](C(=O)O)N2C(=O)C[C@H]2S1(=O)=O [Tazobactam, tazobactam]	–	–	–	> 64 µg/mL	–	–	–	–	–	failed to reduce the MICs; also recorded: failed to observe significant reduction in MIC	–	–	–	–	–
C[C@@H](O)[C@H]1C(=O)N2C(C(=O)O)=C(SC3CN(C4=NCCS4)C3)[C@H](C)[C@H]12 [Tebipenem, tebipenem]	4 to 8 µg/mL	>64 µg/mL	>64 µg/mL	128 to 256 µg/mL	256 µg/mL	128 to 256 µg/mL	8 to 16 µg/mL	levels that are therapeutically relevant; also recorded: largest reduction in MIC	> 38 fold	–	–	~8 µg/mL	1 h	32-64 fold	4 to 8 µg/mL
CC(=N)N1CC[C@H](SC2=C(C(=O)O)N3C(=O)[C@H]([C@@H](C)O)[C@H]3C2)C1 [Panipenem, panipenem]	8 to 16 µg/mL	16 to 32 µg/mL	32 to 64 µg/mL	64 to 128 µg/mL	128 µg/mL	64 to 128 µg/mL	8 to 16 µg/mL	levels that are therapeutically relevant; also recorded: levels achievable in the blood	8 fold	–	–	~22 µg/mL	–	–	–
C[C@@H](O)[C@H]1C(=O)N2C(C(=O)[O-])=C(SC3Cn4cnc[n+]4C3)[C@H](C)[C@H]12 (some centres unmarked) [Biapenem, biapenem]	2 to 4 µg/mL	4 to 8 µg/mL	8 to 16 µg/mL	8 to 16 µg/mL	16 µg/mL	16 to 32 µg/mL	8 to 16 µg/mL	–	5 fold	–	–	–	–	–	–
NC(=O)[C@@H]1CC[C@@H]2CN1C(=O)N2OS(=O)(=O)O [Avibactam, avibactam]	–	–	–	> 256 µg/mL	–	> 256 µg/mL	–	–	–	most active	–	–	–	–	–
C[C@@H](O)[C@H]1C(=O)N2C(C(=O)O)=C(S[C@@H]3CN[C@H](C(=O)N(C)C)C3)[C@H](C)[C@H]12 [Meropenem, meropenem]	2 to 4 µg/mL	8 to 16 µg/mL	8 to 16 µg/mL	8 to 16 µg/mL	16 µg/mL	32 to 64 µg/mL	4 to 8 µg/mL	–	6 fold	–	–	–	–	–	–
C[C@@H](O)[C@H]1C(=O)N2C(C(=O)O)=C(SCCN=CN)C[C@H]12 [Imipenem, imipenem]	2 to 4 µg/mL	4 to 8 µg/mL	2 to 4 µg/mL	4 to 8 µg/mL	8 µg/mL	8 to 16 µg/mL	4 to 8 µg/mL	–	2 fold	–	–	–	–	–	–
